Experiments:
[1] = tested on: Male New Zealand white rabbits; experiment: Muscle relaxation test in anesthetized rabbits with neuromuscular transmission monitor (TOF); type: in vivo, rabbit; settings: for ED (2 x ED95): Oryctolagus cuniculus; for ED (2 x ED95) / 2 × ED95: intravenous injection, propofol general anesthesia; for Onset time / Recovery time: i.v. 2×ED95 dose; for Onset time: onset = TOF=0; for Recovery time: recovery of muscle relaxation = TOF=90%
Experimental: Male New Zealand white rabbits weighing 2-3.5 kg were used as experimental animals for muscle relaxation test. The specific procedures were as follows: propofol emulsion was used to induce and maintain general anesthesia (induction dose: 10 mg/kg; maintenance dose: […]). Tracheal intubation was carried out and respiratory support was used.

human body = settings: cited from earlier work; for duration of muscle relaxation / action time: after single administration, clinical use

Row | Molecule | ED (2 x ED95) [1] [mg/kg] | Onset time [1] [s] | Recovery time [1] [min] | action time (lasts for) (human body; in the human body) [min] | ED (2 x ED95) ([1]; iv) [mg/kg] | 2 × ED95 [1] [mg/kg] | duration of muscle relaxation / action time (human body) [min]
1 | C[N+](CCOC(=O)OCOC(=O)CCC[N+]1(Cc2ccccc2)CCCCC1)(Cc1ccccc1)Cc1ccccc1 [Compound 20] | 2.4 | <40 | 6.9 ± 2.5 |  |  |  | 
2 | C[N+](C)(C)CCOC(=O)CCC(=O)OCC[N+](C)(C)C [Succinylcholine, reference compound] |  | <40 | 12.3 ± 4.1 | 10 | 1.8 |  | 
3 | C[N+](CCCCOC(=O)OCOC(=O)C[N+]1(Cc2ccc([N+](=O)[O-])cc2)CCCCC1)(Cc1ccc([N+](=O)[O-])cc1)Cc1ccc(Cl)cc1Cl (stereo not drawn) [Compound 21] | 4 | <40 | 5.1 ± 1.1 |  |  |  | 
4 | COc1ccc(C[C@@H]2c3cc(OC)c(OC)cc3CC[N@+]2(C)CCC(=O)OCCCCCOC(=O)CC[N@@+]2(C)CCc3cc(OC)c(OC)cc3[C@H]2Cc2ccc(OC)c(OC)c2)cc1OC [Cisatracurium, reference compound] | 0.08 | >120 | 17.6 ± 3.2 |  |  |  | 
5 | C[N+](CCOC(=O)OCOC(=O)CCC[N+]1(Cc2ccc([N+](=O)[O-])cc2)CCCCC1)(Cc1ccccc1)Cc1ccc([N+](=O)[O-])cc1 (stereo not drawn) [Compound 13] | 2.1 | <40 | 7.9 ± 1.9 |  |  |  | 
6 | CC(C[N+](C)(Cc1ccccc1)Cc1ccc([N+](=O)[O-])cc1)OC(=O)OCOC(=O)CCC[N+]1(Cc2ccc([N+](=O)[O-])cc2)CCCCC1 (stereo not drawn) [Compound 22] |  | <40 | 6.2 ± 1.4 |  | 1.2 |  | 
7 | C[N+](CCOC(=O)OCOC(=O)CCC[N+]1(Cc2c(F)cc(F)cc2F)CCCCC1)(Cc1ccc(F)cc1)Cc1c(F)cc(F)cc1F (stereo not drawn) [Compound 4] | 0.4 | <40 | 4.4 ± 0.5 |  |  |  | 
8 | C[N+](CCOC(=O)OCOC(=O)CCC[N+]1(Cc2ccccc2Br)CCCCC1)(Cc1ccccc1Br)Cc1ccccc1Br [Compound 8] |  | <40 | 7.2 ± 1.8 |  | 1.2 |  | 
9 | CC(OC(=O)CCC[N+]1(Cc2ccc(Cl)cc2Cl)CCCCC1)OC(=O)OCC[N+](C)(Cc1ccc(Cl)cc1)Cc1ccc(Cl)c(Cl)c1 (stereo not drawn) [Compound 11] |  | <40 | 6.7 ± 2.6 |  |  | 0.5 | 
10 | CC(=O)O[C@H]1C[C@@H]2CC[C@@H]3[C@H](CC[C@@]4(C)[C@H]3C[C@H]([N+]3(C)CCCCC3)[C@@H]4OC(C)=O)[C@@]2(C)C[C@@H]1[N+]1(C)CCCCC1 [pancuronium] |  |  |  |  |  |  | > 60
11 | C[N+](CCOC(=O)OCOC(=O)CCC[N+]1(Cc2ccccc2)CCCCC1)(Cc1ccccc1)Cc1ccc([N+](=O)[O-])cc1 (stereo not drawn) [Compound 18] | 1.9 | <40 | 7.2 ± 2.7 |  |  |  | 
12 | COc1ccc(C[N+](C)(CCCCOC(=O)OC(C)OC(=O)C[N+]2(Cc3ccc(OC)c(OC)c3)CCCCC2)Cc2ccc(OC)c(OC)c2)cc1OC (stereo not drawn) [Compound 24] |  | <40 | 8.4 ± 1.9 |  | 1.4 |  | 
13 | C[N+](CCOC(=O)OCOC(=O)CCC[N+]1(Cc2ccc(Br)cc2)CCCCC1)(Cc1ccc(Br)cc1)Cc1ccc(Br)cc1 [Compound 7] | 1.2 | <40 | 5.2 ± 2.1 |  |  |  | 
14 | C[N+](CCOC(=O)OCOC(=O)CCC[N+]1(Cc2ccc([N+](=O)[O-])cc2)CCCCC1)(Cc1ccc([N+](=O)[O-])cc1)Cc1ccc(Cl)c(Cl)c1 (stereo not drawn) [Compound 16] | 2.2 | <40 | 5.2 ± 1.1 |  |  |  | 
15 | C[N+](CCOC(=O)OCOC(=O)CCC[N+]1(Cc2ccc([N+](=O)[O-])cc2)CCCCC1)(Cc1ccc([N+](=O)[O-])cc1)Cc1ccc([N+](=O)[O-])cc1 [Compound 12] | 1.8 | <40 | 8.1 ± 0.2 |  |  |  | 
16 | COc1ccc(C[N+](C)(Cc2ccc(OC)c(OC)c2)CC(C)OC(=O)OC(C)OC(=O)CCC[N+]2(Cc3ccc(OC)c(OC)c3)CCCCC2)cc1OC (stereo not drawn) [Compound 23] |  | <40 | 7.8 ± 2.4 |  | 1.2 |  | 
17 | CC(OC(=O)CCC[N+]1(Cc2ccc(Cl)cc2Cl)CCCCC1)OC(=O)OCC[N+](C)(Cc1ccc(Cl)cc1)Cc1ccc(Cl)c(Cl)c1 (stereo not drawn) [Compound 9] |  | <40 | 4.2 ± 1.1 |  | 0.6 |  | 
18 | C[N+](CCOC(=O)OCOC(=O)CCC[N+]1(Cc2c(F)c(F)c(F)c(F)c2F)CCCCC1)(Cc1c(F)c(F)c(F)c(F)c1F)Cc1c(F)c(F)c(F)c(F)c1F [Compound 6] | 0.9 | <40 | 5.1 ± 2.1 |  |  |  | 
19 | C[N+](CCOC(=O)OCOC(=O)CCC[N+]1(Cc2ccc([N+](=O)[O-])cc2)CCCCC1)(Cc1ccccc1)Cc1ccccc1 [Compound 19] | 2.2 | <40 | 7.1 ± 1.2 |  |  |  | 
20 | C[N+](CCOC(=O)OCOC(=O)CCC[N+]1(Cc2ccc([N+](=O)[O-])cc2[N+](=O)[O-])CCCCC1)(Cc1ccc([N+](=O)[O-])cc1)Cc1ccc([N+](=O)[O-])cc1 [Compound 5] | 0.4 | <40 | 6.2 ± 1.4 |  |  |  | 
21 | C[N+](CCOC(=O)OCOC(=O)CCC[N+]1(Cc2ccc(Cl)cc2Cl)CCCCC1)(Cc1ccc(Cl)cc1)Cc1ccc(Cl)c(Cl)c1 (stereo not drawn) [Compound 1] | 0.5 | <40 | 4.2 ± 1.1 |  |  |  | 
22 | CC(OC(=O)CCC[N+]1(Cc2ccc([N+](=O)[O-])cc2)CCCCC1)OC(=O)OCC[N+](C)(Cc1ccccc1)Cc1ccc([N+](=O)[O-])cc1 (stereo not drawn) [Compound 14] | 2.4 | <40 | 4.2 ± 1.2 |  |  |  | 
23 | COc1ccc(C[N+](C)(CCCC(C)OC(=O)OC(C)OC(=O)C[N+]2(Cc3ccc(OC)c(OC)c3)CCCCC2)Cc2ccc(OC)c(OC)c2)cc1OC (stereo not drawn) [Compound 25] |  | <40 | 8.1 ± 2.9 |  | 1.4 |  | 
24 | C[N+](CCOC(=O)OCOC(=O)CCC[N+]1(Cc2ccc([N+](=O)[O-])cc2)CCCCC1)(Cc1ccc(Br)cc1)Cc1ccc([N+](=O)[O-])cc1 (stereo not drawn) [Compound 15] | 1.9 | <40 | 5.3 ± 2.1 |  |  |  | 
25 | C[N+](CCOC(=O)OCOC(=O)CCC[N+]1(Cc2ccc(Br)c(Br)c2)CCCCC1)(Cc1ccc(Br)cc1)Cc1cccc(Cl)c1Cl (stereo not drawn) [Compound 3] | 1.3 | <40 | 3.8 ± 0.4 |  |  |  | 
26 | CC(OC(=O)CCC[N+]1(Cc2ccc(Cl)cc2Cl)CCCCC1)OC(=O)OCC[N+](C)(Cc1ccc(Cl)cc1)Cc1ccc(Cl)c(Cl)c1 (stereo not drawn) [Compound 10] |  | <40 | 4.2 ± 0.9 |  |  | 0.7 | 
27 | micuronium |  |  |  |  |  |  | 15 to 20

Reference: patent publication US11161828B2, “Class of bisquaternary ammonium compound as well as the preparative method and the use thereof” (WEST CHINA HOSPITAL, SICHUAN UNIVERSITY, priority 2018, dated 2021)
